Experimental data: US20100087623A1, “Method of extracting proteins and peptides from nano pearl powder” (priority 2008, published 2010)
Values joined by “and” are separate entries in the source; they are usually repeats but may differ in a detail not shown here. Equal entries are not always repeated.

Tested on: tyrosinase (tyramine acid enzyme)
Assay: Inhibition of tyrosinase (tyramine acid enzyme) activity, dopachrome growth
Type: biochemical
Details: 2 mg/mL or 1 mg/mL, 37° C., pH 6.8
Procedure: Pearl powder solution is subjected to filter by employing a device called Centriprep YM3. […] In this experiment, effects of tyrosinase activation (i.e., dopachrome growth) caused by each of soluble organic compound extract of nono pearl powder and soluble organic compound extract of micro pearl powder are evaluated. Also, for pearl powder of the same effects of tyrosinase activation caused by organic compounds having a molecular weight more than 5 kDa and by organic compounds having a molecular weight less than 5 kDa are evaluated.
Referring to FIG. 11 and Table 7 again, experiment conditions are concentration of 1 mg/mL, temperature of 37° C., and pH value of 6.8.

OC[C@H]1O[C@@H](Oc2ccc(O)cc2)[C@H](O)[C@@H](O)[C@@H]1O [arbutin]
Inhibition (%) of tyramine acid enzyme (dopachrome growth) (0 minute): 0 ± 0%
Inhibition (%) of tyramine acid enzyme (dopachrome growth) (5 minute): 36.5 ± 1.9%
Inhibition (%) of tyramine acid enzyme (dopachrome growth) (10 minute): 48.6 ± 0.7%
Inhibition (%) of tyramine acid enzyme (dopachrome growth) (15 minute): 54.3 ± 1.0%
Inhibition (%) of tyramine acid enzyme (dopachrome growth) (30 minute): 53% and 54.7 ± 0.9%
Inhibition (%) of tyramine acid enzyme (dopachrome growth) (45 minute): 37.1 ± 1.3%
Inhibition (%) of tyramine acid enzyme (dopachrome growth) (60 minute): 21% and 21.6 ± 1.9%
